{
  "source": "patent US5246929A",
  "about": "“Naphtho thiazine (or oxaline) derivatives and preparations thereof” (Tanabe Seiyaku Co., Ltd., priority 1990, dated 1993)",
  "type_in_all_cases": "in vivo",
  "key": {"mice": {"tested_on": "mice", "assay": "Acute oral toxicity in mice", "details": "500 mg/kg orally, 7 days", "excerpt": "The compounds (I) of this invention can inhibit the calcium entrance into the cerebral synaptosome and show excellent central calcium antagonistic activity and/or excellent calcium antagonistic activity in cerebral blood vessel, and can be used for the treatment and prophylaxis of cerebral diseases due to cerebral blood flow disorder at acute and chronic periods, for example, subarachnoid hemorrhage, cerebral infarction, etc. The compounds (I) of this invention have also an activity for protecting cerebral neurocyte. For example, when 2-(4-chlorophenyl)-4-(diethylamino)acetyl-3,4-dihydro-2H-1,4-benzothiazinewas intraperitoneally administered to evanescent cerebral ischemic rats with ligating four vessels in a dose of 1.5 mg/kg twice a day for four days, it increased the number of normal pyramidal cells at hippocampul CA1 region in about 90% in comparison with the non-medicated group. Accordingly, the compounds (I) of this invention can effectively be used for the prophylaxis, treatment and amelioration of sequelae of cerebral neurocyte dyscrasia, for example, disturbances of consciousness (e.g. somnolenz, sopor, coma, stupor, clouding of consciousness, etc.), motor paralysis (e.g. parkinsonism, etc.), cerebral neuropathy (e.g. dysuria, etc.), speech and language disorders (e.g. articulation disorders, aphasia, semantic aphasia, etc.), sensitive disorders (e.g. pain, sysesthesia, heat sensibility disorder, etc.), psychological disorders (e.g. dementia, hallucination, delusion, delirium, poriomania, melancholia, neurosis, emotional incontinence, etc.), and the like, and further the prophylaxis of palindromia and also the prophylaxis of exacerbation and progression of the symptoms. […] In addition, the compounds (I) of this invention have low toxicity and has high safety."}, "[1]": {"tested_on": "normal pyramidal cells at hippocampul CA1 region", "assay": "Number of normal pyramidal cells in evanescent cerebral ischemic rats with ligating four vessels", "details": "1.5 mg/kg intraperitoneally twice a day for four days, four vessels ligated", "excerpt": "The compounds (I) of this invention can inhibit the calcium entrance into the cerebral synaptosome and show excellent central calcium antagonistic activity and/or excellent calcium antagonistic activity in cerebral blood vessel, and can be used for the treatment and prophylaxis of cerebral diseases due to cerebral blood flow disorder at acute and chronic periods, for example, subarachnoid hemorrhage, cerebral infarction, etc. The compounds (I) of this invention have also an activity for protecting cerebral neurocyte. For example, when 2-(4-chlorophenyl)-4-(diethylamino)acetyl-3,4-dihydro-2H-1,4-benzothiazinewas intraperitoneally administered to evanescent cerebral ischemic rats with ligating four vessels in a dose of 1.5 mg/kg twice a day for four days, it increased the number of normal pyramidal cells at hippocampul CA1 region in about 90% in comparison with the non-medicated group. […]"}, "[2]": {"tested_on": "cerebral anoxia induced by potassium cyanide", "assay": "Activity for protecting cerebral anoxia induced by potassium cyanide (survival time)", "details": "10 mg/kg orally, mice; potassium cyanide 2.4 mg/kg tail vein one hour later"}},
  "note": "Where a name gives a salt, the structure may show the parent alone.",
  "data": [
    {"molecule": "CN(C)CCCN1C(=O)C(c2cccc(C(F)(F)F)c2)Sc2ccc3ccccc3c21.O=C(O)C(=O)O", "note": "(centres unmarked) [1-[3-(dimethylamino)propyl]-3-(3-trifluoromethylphenyl)-1H-naphtho[2,1-b][1,4]thiazin-2(3H)-one oxalate]", "values": [
      {"measurement": "mortality of mice", "setting": "mice", "value": "no mouse died even after 7 days"}
    ]},
    {"molecule": "CCN(CC)CC(=O)N1CC(c2ccc(Cl)cc2)Sc2ccc3ccccc3c21", "note": "(centres unmarked) [3-(4-chlorophenyl)-1-(diethylamino)acetyl-2,3-dihydro-1H-naphtho[2,1-b][1,4]thiazine oxalate]", "values": [
      {"measurement": "mortality of mice", "setting": "mice", "value": "no mouse died even after 7 days"}
    ]},
    {"molecule": "CCN(CC)CC(=O)N1CC(c2ccc(Cl)cc2)Sc2ccccc21", "note": "(centres unmarked) [2-(4-chlorophenyl)-4-(diethylamino)acetyl-3,4-dihydro-2H-1,4-benzothiazineoxalate]", "values": [
      {"measurement": "mortality of mice", "setting": "mice", "value": "no mouse died even after 7 days"}
    ]},
    {"molecule": "CCN(CC)CC(=O)N1CC(c2ccc(Cl)cc2)Sc2ccccc21", "note": "(centres unmarked) [2-(4-chlorophenyl)-4-(diethylamino)acetyl-3,4-dihydro-2H-1,4-benzothiazine]", "values": [
      {"measurement": "increase of the number of normal pyramidal cells at hippocampul CA1 region in comparison with the non-medicated group", "setting": "[1]", "value": "about 90%"}
    ]},
    {"molecule": "4-(dimethylamino)acetyl-2-(4-fluorophenyl)-3,4-dihydro-2H-1,4-benzothiazine oxalate [Example 1]", "values": [
      {"measurement": "Prolonging rate of survival time", "setting": "[2]", "value": 62, "unit": "%"}
    ]}
  ]
}
